Data taken from patent US7678808B2, “5 HT receptor mediated neurogenesis” (BrainCells, Inc., priority 2006, dated 2010).

Assays:
[1] = tested on: human neural stem cells (hNSCs); assay: Astrocyte differentiation of hNSCs (GFAP staining); type: cell-based; conditions: hNSC; for EC50: Homo sapiens, Neural stem cell
Description: Experiments were carried out as described in Example 1, except the positive control for astrocyte differentiation contained mitogen-free test media with a positive control, and cells were stained with GFAP antibody.
Experiments were carried out as described in Example 2, except the positive control for astrocyte differentiation contained mitogen-free test media with a different positive control.
(§1) Human neural stem cells (hNSCs) were isolated and grown in monolayer culture, plated, treated with varying concentrations of buspirone in the presence or absence of the melatonin agonist melatonin, and stained with TUJ-1 antibody for the detection of neuronal differentiation or GFAP antibody for the detection of astrocyte differentiation, as described above. Mitogen-free test media with a positive control for neuronal differentiation was used along with basal media without growth factors as a negative control.

[2] = tested on: human neural stem cells (hNSCs); assay: Neuronal differentiation of human neural stem cells (TUJ-1 staining); type: cell-based; conditions: for EC50: Homo sapiens, Neural stem cell, agent alone, data as % of neuronal positive control, basal media subtracted; for EC50 / effect on neuronal differentiation (in words): hNSC; for effect on neuronal differentiation (in words): TUJ-1
From the text: Mitogen-free test media with a positive control was used for neuronal differentiation, and basal media without growth factors served as a negative control.
Mitogen-free test media with a positive control for neuronal differentiation was used, and basal media without growth factors served as a negative control.
as §1
(§2) Human neural stem cells (hNSCs) were isolated and grown in monolayer culture, plated, treated with varying concentrations of a 5-HT3 antagonist and stained with TUJ-1 antibody, as described above. Mitogen-free test media with a positive control for neuronal differentiation was used along with basal media without growth factors as a negative control.
as §2, with “5-HT4 agonist” for “5-HT3 antagonist”
The presence of synergy was determined by use of a combination index (CI). […] The CI is a quantitative measure of the nature of drug interactions, comparing the EC50's of two compounds, when each is assayed alone, to the EC50 of each compound when assayed in combination. The combination index (CI) is equal to the following formula: […]
where C1 and C2 are the concentrations of a first and a second compound, respectively, resulting in 50% activity in neuronal differentiation when assayed in combination; and IC1 and IC2 are the concentrations of each compound resulting in 50% activity when assayed independently.

[3] = agent alone, % of astrocyte positive control, basal media subtracted

## N[C@@H](Cc1c[nH]c2ccc(O)cc12)C(=O)O [5-HTP, 5-hydroxytryptophan]
[1]; [3]
  EC50, astrocyte differentiation: undeterminable
[1]; GFAP
  effect on astrocyte differentiation (in words): no significant increase in astrocyte differentiation above basal media values
[2]
  EC50: 12 µM
  effect on neuronal differentiation (in words): weakly promoted neuronal differentiation

## COc1ccc2cccc(CCNC(C)=O)c2c1 [agomelatine]
[2]
  EC50: 8.7 µM
  effect on neuronal differentiation (in words): promotes differentiation of neural stem cells into neurons

## NCC(CC(=O)O)c1ccc(Cl)cc1 (stereo not drawn) [baclofen]
[1]; [3]
  EC50: > 31.6 µM
[2]
  EC50: 3.9 µM

## C[C@H](CS)C(=O)N1CCC[C@H]1C(=O)O [captopril]
[2]
  EC50: 5.4 µM

## NC(=O)N1c2ccccc2C=Cc2ccccc21 [carbemazepine]
[2]
  EC50: 15.7 µM

## COc1cc(N)c(Cl)cc1C(=O)NC1CCN(CCCOc2ccc(F)cc2)CC1OC (stereo not drawn) [cisapride]
[2]
  EC50: 7.9 µM
  effect on neuronal differentiation (in words): promote differentiation of neural stem cells into neurons

## NCCc1ccc(O)c(O)c1 [dopamine, 4-(2-aminoethyl)benzene-1,2-diol]
[2]; dopamine alone or with 10 μM or 30 μM 5-HTP
  neuronal differentiation, dopamine dose response: did not significantly enhance neuronal differentiation

## Nc1nc2ncc(CNc3ccc(C(=O)N[C@@H](CCC(=O)O)C(=O)O)cc3)nc2c(=O)[nH]1 [folic acid]
[2]
  EC50: 4.5 µM

## NCC1(CC(=O)O)CCCCC1 [gabapentin]
[2]
  EC50: 11.5 µM

## CN1C2CCCC1CC(NC(=O)c1nn(C)c3ccccc13)C2 (stereo not drawn) [granisetron]
[2]
  effect on neuronal differentiation (in words): promote differentiation of neural stem cells into neurons

## CC(C)C(=O)c1c(C(C)C)nn2ccccc12 [ibudilast]
[2]
  EC50: 0.72 µM

## COC(=O)C(c1ccccc1)C1CCCCN1 (stereo not drawn) [methylphenidate]
[2]
  EC50: 2.2 µM

## NC(=O)C[S+]([O-])C(c1ccccc1)c1ccccc1 (stereo not drawn) [modafinil]
[1]; agent alone
  EC50: > 31.6 µM
[2]
  EC50: 12.5 µM

## O=C1CC[C@@]2(O)[C@H]3Cc4ccc(O)c5c4[C@@]2(CCN3CC2CC2)[C@H]1O5 [naltrexone]
[2]
  EC50: 0.39 µM

## Cc1nccn1CC1CCc2c(c3ccccc3n2C)C1=O (stereo not drawn) [ondansetron]
[2]
  EC50: 23.9 µM
  effect on neuronal differentiation (in words): promote differentiation of neural stem cells into neurons

## CNS(=O)(=O)Cc1ccc2[nH]cc(CCN(C)C)c2c1 [sumatriptan]
[2]
  EC50: 14.9 µM
  effect on neuronal differentiation (in words): promotes differentiation of neural stem cells into neurons

## O=C1[C@@H]2[C@H]3CC[C@H](C3)[C@@H]2C(=O)N1CCCCN1CCN(c2ncccn2)CC1 [tandospirone]
[1]; [3]
  EC50: 8.69 µM
[2]
  EC50: 12.1 µM
